Reference: patent publication US4104372A, “1-N-(α-hydroxy-ω-aminoalkanoyl) derivatives of 3'-deoxykanamycin A and the production thereof” (Zaidan Hojin Biseibutsu Kagaku Kenkyu Kai, priority 1975, dated 1978)
Values after ≈ are worked out from the molar mass of the structure shown.

Assays:
[1] = system: drug-resistant bacteria capable of producing the 3'-phosphotransferase; conditions: 3'-phosphotransferase producers; cited from earlier work
[2] = system: various kanamycin-resistant bacteria and Pseudomonas aeruginosa (for example, Pseudomonas aeruginosa GN 315) capable of producing the 6'-acetyltransferase; conditions: 6'-acetyltransferase producers; cited from earlier work
[3] = system: Pseudomonas aeruginosa No. 12; experiment: Minimum inhibitory concentration, agar dilution-streak method; assay type: cell-based; conditions: P. aeruginosa No. 12, nutrient agar, 37° C, 18 hours
Experimental: (§1) The minimum inhibitory concentrations (mcg/ml) of the new compounds 1-N-((S)-γ-amino-α-hydroxybutyryl)-3'-deoxykanamycin A (abbreviated as S-AHB-DKA); 1-N-((SR)-β-amino-α-hydroxypropionyl)-3'-deoxykanamycin A (abbreviated as SR-AHP-DKA); 1-N-((S)-δ-amino-α-hydroxyvaleryl)-3'-deoxykanamycin A (abbreviated as S-AHV-DKA); and 1-N-((S)-γ-amino-α-hydroxybutyryl)-6'-N-methyl-3'-deoxykanamycin A (abbreviated as S-AHB-MDKA) against various organisms were determined according to agar dilution-streak method (nutrient agar) at 37° C, the estimation being made after 18 hours incubation. For the comparison purpose, the minimum inhibitory concentrations (mcg/ml) of the parent antibiotic 3'-deoxykanamycin A, as well as 1-N-((S)-γ-amino-α-hydroxybutyryl)kanamycin A (abbreviated as AHB-KMA) which is known from U.S. Pat. No. 3,781,268 were also determined in the same manner as stated above.

[4] = system: Escherichia coli K-12 ML 1410; experiment: as above; assay type: cell-based; conditions: K12ML1410, E. coli K-12 ML 1410, nutrient agar, 37° C, 18 hours
Experimental: as §1

[5] = system: Staphylococcus aureus FDA 209P; experiment: as above; assay type: cell-based; conditions: FDA209P, S. aureus FDA 209P, nutrient agar, 37° C, 18 hours
Experimental: as §1

[6] = system: Escherichia coli K-12 LA 290 R55; experiment: as above; assay type: cell-based; conditions: K12LA290R55, 18 h, read-out: Minimum Inhibitory Concentration
Experimental: as §1

[7] = system: Escherichia coli K-12 ML 1629; experiment: as above; assay type: cell-based; conditions: K12ML1629, E. coli K-12 ML 1629, nutrient agar, 37° C, 18 hours
Experimental: as §1

Escherichia coli K-12 = experiment: as above; assay type: cell-based; conditions: K12, E. coli K-12, nutrient agar, 37° C, 18 hours
Experimental: as §1

[8] = system: Pseudomonas aeruginosa A3; experiment: as above; assay type: cell-based; conditions: P. aeruginosa A3, nutrient agar, 37° C, 18 hours
Experimental: as §1

[9] = system: Pseudomonas aeruginosa GN315; experiment: as above; assay type: cell-based; conditions: P. aeruginosa GN315, nutrient agar, 37° C, 18 hours
Experimental: as §1

[10] = system: Escherichia coli K-12 ML 1630; experiment: as above; assay type: cell-based; conditions: K12ML1630, E. coli K-12 ML 1630, nutrient agar, 37° C, 18 hours
Experimental: as §1

[11] = system: Escherichia coli K-12 JR66/W677; experiment: as above; assay type: cell-based; conditions: K12JR66/W677, 18 h, read-out: Minimum Inhibitory Concentration
Experimental: as §1

[12] = system: Escherichia coli K-12 W677; experiment: as above; assay type: cell-based; conditions: K12W677, E. coli K-12 W677, nutrient agar, 37° C, 18 hours
Experimental: as §1

[13] = system: kanamycin-resistant bacteria and ribostamycin-resistant bacteria; conditions: cited from earlier work

Compound	effectiveness against drug-resistant bacteria [1]	activity against resistant bacteria [2]	MIC [3] [µg/mL]	MIC [4] [µg/mL]	MIC [5] [µg/mL]	MIC [6] [µg/mL]	MIC [7] [µg/mL]	MIC (Escherichia coli K-12) [µg/mL]	MIC [8] [µg/mL]	MIC [9] [µg/mL]	MIC [10] [µg/mL]	MIC [11] [µg/mL]	MIC [12] [µg/mL]	activity against resistant bacteria [13]
NC[C@@H]1CC[C@@H](N)[C@@H](O[C@H]2[C@H](O)[C@@H](O[C@H]3O[C@H](CO)[C@@H](O)[C@H](N)[C@H]3O)[C@H](N)C[C@@H]2N)O1 [3',4'-dideoxykanamycin B]	practically effective against the drug-resistant bacteria													
NC[C@@H]1CC[C@@H](N)[C@@H](O[C@H]2[C@H](O[C@@H]3O[C@H](CO)[C@@H](O)[C@H]3O)[C@@H](O)[C@H](N)C[C@@H]2N)O1 [3',4'-dideoxyribostamycin]	practically effective against the drug-resistant bacteria													
CNC[C@@H]1CC[C@@H](N)[C@@H](O[C@H]2[C@H](O)[C@@H](O[C@H]3O[C@H](CO)[C@@H](O)[C@H](N)[C@H]3O)[C@H](N)C[C@@H]2N)O1 [6'-N-methyl-3',4'-dideoxykanamycin B]		active against various kanamycin-resistant bacteria and Pseudomonas aeruginosa												
CNC[C@H]1O[C@H](O[C@H]2[C@H](O)[C@@H](O[C@H]3O[C@H](CO)[C@@H](O)[C@H](N)[C@H]3O)[C@H](N)C[C@@H]2N)[C@H](N)C[C@@H]1O [6'-N-methyl-3'-deoxykanamycin B]		active against various kanamycin-resistant bacteria and Pseudomonas aeruginosa												
NCC[C@H](O)C(=O)N[C@@H]1C[C@H](N)[C@@H](O[C@H]2O[C@H](CN)[C@@H](O)[C@H](O)[C@H]2O)[C@H](O)[C@H]1O[C@H]1O[C@H](CO)[C@@H](O)[C@H](N)[C@H]1O [AHB-KMA, 1-N-((S)-γ-amino-α-hydroxybutyryl)kanamycin A, reference compound]			6.25 (≈ 10.7 µM)	0.78 (≈ 1.33 µM)	0.78 (≈ 1.33 µM)	0.78 (≈ 1.33 µM)	0.78 (≈ 1.33 µM)	0.78 (≈ 1.33 µM)	3.12 (≈ 5.33 µM)	100 (≈ 171 µM)	1.56 (≈ 2.66 µM)	3.12 (≈ 5.33 µM)	0.78 (≈ 1.33 µM)	
NC[C@H]1O[C@H](O[C@H]2[C@H](O)[C@@H](O[C@H]3O[C@H](CO)[C@@H](O)[C@H](N)[C@H]3O)[C@H](N)C[C@@H]2N)[C@H](O)C[C@@H]1O [DKA, 3'-deoxykanamycin A]	practically effective against the drug-resistant bacteria		12.5 (≈ 26.7 µM)	3.12 (≈ 6.66 µM)	1.56 (≈ 3.33 µM)	3.12 (≈ 6.66 µM)	3.12 (≈ 6.66 µM)	3.12 (≈ 6.66 µM)	3.12 (≈ 6.66 µM)	> 100	3.12 (≈ 6.66 µM)	> 100	3.12 (≈ 6.66 µM)	
NCC[C@H](O)C(=O)N[C@@H]1C[C@H](N)[C@@H](O[C@H]2O[C@H](CN)[C@@H](O)C[C@H]2O)[C@H](O)[C@H]1O[C@H]1O[C@H](CO)[C@@H](O)[C@H](N)[C@H]1O [S-AHB-DKA, 1-N-((S)-γ-amino-α-hydroxybutyryl)-3'-deoxykanamycin A]			3.12 (≈ 5.48 µM)	0.39 (≈ 0.685 µM)	0.39 (≈ 0.685 µM)	0.78 (≈ 1.37 µM)	0.39 (≈ 0.685 µM)	0.39 (≈ 0.685 µM)	3.12 (≈ 5.48 µM)	100 (≈ 176 µM)	0.78 (≈ 1.37 µM)	0.78 (≈ 1.37 µM)	< 0.2	
CNC[C@H]1O[C@H](O[C@H]2[C@H](O)[C@@H](O[C@H]3O[C@H](CO)[C@@H](O)[C@H](N)[C@H]3O)[C@H](NC(=O)[C@@H](O)CCN)C[C@@H]2N)[C@H](O)C[C@@H]1O [S-AHB-MDKA, 1-N-((S)-γ-amino-α-hydroxybutyryl)-6'-N-methyl-3'-deoxykanamycin A]			3.12 (≈ 5.35 µM)	0.78 (≈ 1.34 µM)	0.78 (≈ 1.34 µM)	1.56 (≈ 2.67 µM)	1.56 (≈ 2.67 µM)	0.39 (≈ 0.668 µM)	3.12 (≈ 5.35 µM)	6.25 (≈ 10.7 µM)	0.78 (≈ 1.34 µM)	1.56 (≈ 2.67 µM)	3.12 (≈ 5.35 µM)	
NCCC[C@H](O)C(=O)N[C@@H]1C[C@H](N)[C@@H](O[C@H]2O[C@H](CN)[C@@H](O)C[C@H]2O)[C@H](O)[C@H]1O[C@H]1O[C@H](CO)[C@@H](O)[C@H](N)[C@H]1O [S-AHV-DKA, 1-N-((S)-δ-amino-α-hydroxyvaleryl)-3'-deoxykanamycin A]			6.25 (≈ 10.7 µM)	3.12 (≈ 5.35 µM)	0.78 (≈ 1.34 µM)	3.12 (≈ 5.35 µM)	1.56 (≈ 2.67 µM)	0.78 (≈ 1.34 µM)	3.12 (≈ 5.35 µM)	> 100	1.56 (≈ 2.67 µM)	3.12 (≈ 5.35 µM)	3.12 (≈ 5.35 µM)	
NCC(O)C(=O)N[C@@H]1C[C@H](N)[C@@H](O[C@H]2O[C@H](CN)[C@@H](O)C[C@H]2O)[C@H](O)[C@H]1O[C@H]1O[C@H](CO)[C@@H](O)[C@H](N)[C@H]1O (stereo partly drawn) [SR-AHP-DKA, 1-N-((SR)-β-amino-α-hydroxypropionyl)-3'-deoxykanamycin A]			6.25 (≈ 11.2 µM)	0.78 (≈ 1.4 µM)	0.78 (≈ 1.4 µM)	1.56 (≈ 2.81 µM)	0.78 (≈ 1.4 µM)	0.39 (≈ 0.702 µM)	3.12 (≈ 5.62 µM)	> 100	0.78 (≈ 1.4 µM)	1.56 (≈ 2.81 µM)	0.78 (≈ 1.4 µM)	
NCC[C@H](O)C(=O)N[C@@H]1C[C@H](N)[C@@H](O[C@H]2O[C@H](CN)[C@@H](O)[C@H](O)[C@H]2N)[C@H](O[C@@H]2O[C@H](CO)[C@@H](O)[C@H]2O)[C@H]1O [butirosin B, 1-N-((S)-α-hydroxy-γ-amino-n-butyryl)-5-O-β-D-ribofuranosylneamine]														active against some kanamycin-resistant bacteria and some ribostamycin-resistant bacteria
